Columns and labels:
PSC27 cells = test: Population doubling test of PSC27; format: cell-based, human
Protocol: The cells were damaged by BLEO at passage 10 (p10), and then PCC1 was added to the medium at day 8. The effect of PCC1 on cell proliferation potential is determined by comparative analysis of the population doubling (PD) of CTRL group, BLEO group, PCC1 group and BLEO/PCC1 group. ^, P>0.05; ***, P<0.001.

[1] = tested on: senescent cells in tumor tissue; test: SA-β-Gal staining of tumor tissue in PC3/PSC27 tumor-bearing mice; format: in vivo; conditions: PCC1 administered to MIT-treated animals
Protocol: Representative pictures after SA-β-Gal staining. Scale bar, 100 μm.
A P>0.05; **, P<0.01; ***, P<0.001.
In a preclinical treatment trial, subcutaneously transplanted mice were fed with a standard experimental diet, after 2 weeks chemotherapy drugs mitoxantrone (MIT, dose: 0.2 mg/kg) and/or procyanidin C1 (PCC1) (500 μl, dose: 10 mg/kg) via intraperitoneal administration. The time points were: the former was administrated on the first day of the 3rd, 5th and 7th weeks, and the latter was administrated on the first day of the 5th and 7th weeks. A total of 3 cycles of MIT administration were carried out throughout the course of treatment, and each cycle lasted for 2 weeks. After the course of treatment, mouse tumors were harvested for volume measurement and histological analysis. Each mouse cumulatively received 0.6 mg/kg body weight of MIT and 30 mg/kg body weight of PCC1. In order to cause systemic expression of SASP factor induced by chemotherapy, MIT was administered to mice through intravenous infusion according to the above steps and sequence, but the dose was reduced to 0.1 mg/kg body weight/each time (the cumulative dose of MIT received in the whole course of treatment was 0.3 mg/kg body weight) to reduce drug-related toxicity. […]

aged C57BL/6 mice = test: Lifespan study in aged C57BL/6 mice; format: in vivo; conditions: from age 24-27 months
Protocol: Starting at 24 to 27 months of age, C57BL/6 mice received intraperitoneal administration of vehicle or PCC1 every two weeks (n=80 for vehicle group; n=91 for PCC1 group). The median survival of animals in each group was calculated and indicated. ****, P<0.0001.
Starting at 24 to 27 months of age, C57BL/6 mice received intraperitoneal administration of vehicle or PCC1 every two weeks (n=80 for vehicle group; n=91 for PCC1 group). The median lifetime survival of animals in each group was calculated and indicated. ****, P <0.0001.
For the cell transplantation study, we obtained […] male C57BL/6 mice by serial rearing in the SPF animal platform, with 4 to 5 animals per cage. We first sorted the mice by body weight from low to high, and then selected mice with similar body weights. Next, the mice were assigned to senescence (SEN) or control (CTRL) transplant treatment at each interval using a random number generator, while the middle mice were assigned to the other treatment, so that the body weights of the senescence and control transplant mice were matched. One month after cell transplantation, when the mice were 18 months old, physical function tests were performed. After that, no further testing was done on the mice other than checking their cages. The earliest deaths occurred approximately 2 months after the last physical function test. […]

## Oc1cc(O)c2c(c1)O[C@H](c1ccc(O)c(O)c1)[C@H](O)[C@H]2c1c(O)cc(O)c2c1O[C@H](c1ccc(O)c(O)c1)[C@H](O)[C@H]2c1c(O)cc(O)c2c1O[C@H](c1ccc(O)c(O)c1)[C@H](O)C2 [PCC1, procyanidin C1]
PSC27 cells; BLEO and PCC1 combined treatment vs BLEO group
  population doubling (PD) ability: significantly increased
PSC27 cells; PCC1 alone, proliferating cells
  effect on PD of proliferating cells: did not appear to affect
[1]
  senescent cells within lesions of chemotherapeutic (MIT) animals: substantially depleted most senescent cells
Aged C57BL/6 mice; P<0.0001
  risk of death HR, PCC1 group/vehicle group: 0.35
Aged C57BL/6 mice; drug every two weeks
  median survival period after treatment, longer than vehicle group: 64.2%

Source: patent US12721832B2, “Anti-senescence plant polyphenol drug downregulating senescence-related secretory phenotype and use thereof” (BYHEALTH CO., LTD., priority 2021, dated 2026)
